# Test results as given in publication PMC10180197, “Novel Pyrimidine Derivatives as Antioxidant and Anticancer Agents: Design, Synthesis and Molecular Modeling Studies” (Molecules, 2023).
# Columns and labels:
# soybean lipoxygenase = molecular target: T1, soybean lipoxygenase (Glycine max, UniProt P08170); assay: Inhibition of soybean lipoxygenase; format: biochemical; settings: 100 μM; cells of the mixed column without μM; read-out: LOX % Inhibition 100 μM
# T1 construct: purchased Sigma Aldrich- Merck KGaA, Darmstadt, Germany
# T1 sequence (P08170 1-839): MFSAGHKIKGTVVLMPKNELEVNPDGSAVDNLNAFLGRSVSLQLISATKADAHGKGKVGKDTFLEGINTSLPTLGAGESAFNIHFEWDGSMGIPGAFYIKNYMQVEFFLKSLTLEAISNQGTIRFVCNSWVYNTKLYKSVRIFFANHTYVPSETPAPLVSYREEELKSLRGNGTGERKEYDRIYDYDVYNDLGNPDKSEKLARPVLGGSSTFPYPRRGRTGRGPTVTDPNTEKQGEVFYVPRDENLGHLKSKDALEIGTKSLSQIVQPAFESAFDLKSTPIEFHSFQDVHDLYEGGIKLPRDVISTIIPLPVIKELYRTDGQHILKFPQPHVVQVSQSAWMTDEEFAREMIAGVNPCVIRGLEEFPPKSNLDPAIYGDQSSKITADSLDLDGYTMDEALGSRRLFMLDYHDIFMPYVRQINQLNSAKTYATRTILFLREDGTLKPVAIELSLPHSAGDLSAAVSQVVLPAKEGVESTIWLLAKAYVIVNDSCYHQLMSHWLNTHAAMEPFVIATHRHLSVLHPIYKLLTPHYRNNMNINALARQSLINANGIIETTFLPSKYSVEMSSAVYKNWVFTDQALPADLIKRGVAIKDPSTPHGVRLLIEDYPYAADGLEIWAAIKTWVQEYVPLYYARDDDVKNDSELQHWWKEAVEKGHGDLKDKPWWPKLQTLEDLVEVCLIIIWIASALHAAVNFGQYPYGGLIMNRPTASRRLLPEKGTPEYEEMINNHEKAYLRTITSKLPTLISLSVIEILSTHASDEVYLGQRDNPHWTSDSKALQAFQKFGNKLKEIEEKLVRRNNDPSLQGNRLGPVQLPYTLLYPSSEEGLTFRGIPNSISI
# Description: Lipoxygenase (LOX) is the key enzyme in the biosynthesis of inflammatory mediators; thus, it is considered a target for inflammatory diseases. Soybean LOX is a plant enzyme that has been used widely as a prototype for studying the functional and structural properties of the homologous family of lipoxygenases, presenting satisfactory homology with the human 5-LOX [42]. Linoleic acid is the most common substrate in plant LOX. […] Lipophilicity is considered one of the most important parameters with regard to LOX inhibitors according to the literature.
# In vitro study was performed as reported previously by our group. In this experiment, 10 μL of the tested compound (from the stock solution) were incubated with 100 μL sodium linoleate (diluted in Tris buffer), 200 μL LOX solution (1:9 × 10^−4 w/v in saline) and 690 μL Tris buffer (pH 9.0) at room temperature. The absorbance was measured at 234 nm, where the change of absorbance was recorded due to the formation of 13-hydroperoxy-linoleic acid. […] In order to determine the IC50 values, different concentrations were used.
# [1] = Experimental determination of lipophilicity as RM values (RP-TLC); format: physicochemical; settings: methanol/water 70/30 v/v, 24 °C, SD < 10%
# Description: Lipophilicity is an important physicochemical parameter of a drug candidate, linking solubility and membrane permeability with the ADMET (absorption, distribution, metabolism, elimination and toxicity) properties and the overall suitability of a molecule. Reversed-phase thin-layer chromatography was the method used to experimentally determine the lipophilic character of the synthesized compounds as RM values (Table 2). Lipophilicity was also theoretically calculated as clog P values using the Bio-Loom program of BioByte Corp (http://www.biobyte.com/, (accessed on 1 March 2023)). An attempt was made to correlate the experimental RM values with the theoretically calculated clog P values (Table 2). […] This disagreement could be attributed to several factors, e.g., different solvation, silanophilic interactions and hydrogen bonding.
# Lipophilicity as RM values was determined through reversed-phase TLC (RP-TLC) on silica gel plates impregnated with 5% v/v liquid paraffin in light petroleum ether. Methanol/water mixture (70/30, v/v) was used as mobile phase. Closed chromatography tanks saturated with the mobile phase at 24 °C were used for the development of the plates while the spots were detected under UV light. For the determination of RM values, five individual measurements of Rf values were recorded, and the RM values were derived from the following Equation (1). (1) RM=log1/Rf−1
# [2] = Reducing activity of the stable radical DPPH
# Experimental: All the synthesized compounds were studied for their ability to interact with the stable free 2,2-diphenyl-1-picrylhydrazyl radical (DPPH) at a concentration of 100 μM after 20 min and 60 min (Table 4). This assay is based on the reduction of DPPH by transferring one electron from the antioxidant.
# In vitro study was performed as reported previously by our group. In this experiment, 20 μL of the tested compound (from the stock solution), 980 μL EtOH and 1 mL ethanolic solution of DPPH (100 μM) were added in a testing tube in a final volume of 2 mL. The free radical scavenging ability was evaluated by recording the change of absorbance at 517 nm, produced by the reduction of DPPH, after 20 and 60 min at room temperature.
# [3] = MTT cell viability assay, HaCaT; format: cell-based, human; settings: human, HaCaT cells (epidermal keratinocyte cell line), 100 μΜ
# Experimental: The MTT (3-(4,5-dimethylthiazol-2-yl)-2,5-diphenyltetrazolium bromide) assay is a colorimetric method that is used for the evaluation of cell viability. MTT is converted into colored formazan crystals, indicating the activity of mitochondria and therefore the viability of the cells. Unlike dead cells, the metabolic processes of living cells are functional, meaning that the dehydrogenase enzymes are able to reduce the yellow MTT salt solution to purple crystals, at 37 °C. The intensity of the sample’s color, due to the amount of formazan crystals, is proportional to the number of the living cells in it. Additionally, the colored product is dissolved in various solubilizing agents, such as dimethyl sulfoxide (DMSO). The colored products can be quantitatively measured at 450 nm with a plate reader spectrophotometer. In this study, the human epidermal keratinocyte cell line (HaCaT) was treated with different concentrations (100 μM, 50 μM, 10 μM and 1 μM) of the tested compounds and then the viability rates at each effect were calculated.
# (§1) Τhe MTT assay was used to evaluate cell viability or cell toxicity, depending on the cell line being tested. The experimental procedure was performed in a 96-well plate, where the cells were seeded and incubated (37 °C, 5% CO2) for 24 h to grow and cover the surface of the wells. Τhe seeding concentrations for the HaCaT and A549 cells were 30 × 10^4 cells/mL and 20 × 10^4 cells/mL, respectively. After the first incubation, the solutions of the compounds (with different concentrations) were added to the adherent cells and incubated for another 24 h. The compounds were tested in triplicate against the control (only cells in medium), the blank (only medium) and the positive/negative control (cells in 100 μM silibinin solution) triplicates. Silibinin, a flavonoid with known anticancer activities, was used as a negative control for the cell viability assay and as positive control for the cytotoxicity testing assay. The light-sensitive MTT-standard solution was prepared by dissolving 1 mg/mL MTT in PBS and then filtrated (in a […] filter (Millipore, Carrigtwohill, Ireland)). On the third day, an appropriate amount of ΜΤΤ solution was added to each well and the plate was incubated for 4 h. During the incubation time, the formazan crystals were formed, which were then dissolved with 100 μL DMSO per well. Finally, the plate was stirred for 30 min, and the optical density (OD) was measured in a plate reader spectrophotometer at 450 nm.
# A549 cell line = assay: MTT cytotoxicity assay, A549; format: cell-based, human; settings: Homo sapiens; A549, 100 μΜ, 24 h; read-out: % Cell Toxicity 100 μΜ
# Experimental: The compounds of this study were also tested for their cytotoxic effects against the adenocarcinomic human alveolar basal epithelial cell line (A549) at different concentrations (100 μM, 75 μΜ, 50 μM and 10 μM).
# as §1
# [4] = Inhibition of AAPH induced linoleic acid peroxidation
# Experimental: For the lipid peroxidation study, 2,2′-Azobis(2-methylpropionamidine) dihydrochloride (AAPH) was used as the generator of peroxy radicals and sodium linoleate as the substrate that undergoes peroxidation. The conversion of linoleic acid to 13-hydroperoxy-linoleic acid was recorded at 234 nm. The change of absorbance reflects the possible antioxidant activity of the tested compounds, in comparison with the reference compound, Trolox.
# In vitro study was performed as reported previously by our group. AAPH was used as a free radical generator of alkyl peroxyl radicals. For this experimental procedure, 10 μL of the tested compound (from the stock solution), 10 μL sodium linoleate (16 mM), 50 μL AAPH (40 mM) and 930 μL phosphate-buffered solution (pH 7.4) were added in a UV cuvette (1 mL), pre thermostated at 37 °C. The ability of the compounds to prevent the oxidation of linoleic acid from alkyl peroxyl radicals was evaluated by recording the change of absorbance at 234 nm, due to the conversion of linoleic acid to 13-hydroperoxy-linoleic acid. Trolox was used as the reference.
compound,measurement,setting,value
"O=C(/C=C/c1cccs1)c1ccccc1 [Compound 1c, (E)-1-phenyl-3-(thiophen-2-yl)prop-2-en-1-one]",melting point,,58 to 60 °C
same,inhibition at 100 µM,soybean lipoxygenase,6%
same,RM,[1],−0.52
"CC(Cc1ccc(O)c(O)c1)C(C)Cc1ccc(O)c(O)c1 (centres unmarked) [NDGA, Nordihydroguaretic acid, reference compound]",RA % 100 μM 20 min,[2]; 20 min,87 - %
same,RA % 100 μM 60 min,[2]; 60 min,93 - %
"COc1cc(C2Oc3cc([C@H]4Oc5cc(O)cc(O)c5C(=O)[C@@H]4O)ccc3OC2CO)ccc1O (some centres unmarked) [Silibinin, reference compound]","viability at 24 h, 100 μM",[3],14.9%
same,cytotoxicity at 100 µM,A549 cell line,96.4%
"Cc1c(C)c2c(c(C)c1O)CCC(C)(C(=O)O)O2 (centres unmarked) [Trolox, 6-Hydroxy-2,5,7,8-tetramethyl-chroman2-carboxylic acid, reference compound]",AAPH % Inhibition 100 μM,[4],- 92%
